From patent publication US11739100B2, “2,3-dihydro-1h-imidazo{1,2-a}pyrimidin-5-one and this 1,2,3,4-tetrahydropyrimido{1,2-a}pyrimidin-6-one derivatives comprising a substituted morpholine, preparation thereof and pharmaceutical use thereof” (SANOFI, priority 2012, dated 2023) come the findings set out here.

The assay has as its target T1, recombinant Vps34 (Homo sapiens, UniProt Q8NEB9).
T1 construct: purchased Invitrogen PV5126
Put plainly: Phosphorylation of phosphatidylinositol (PI) by Vps34 in vitro, ADP detected by TR-FRET (HTRF Transcreener ADP). The note with it: 10 μM ATP, 55 μg/ml PI, approximately 3 nM Vps34, 1 hour at ambient temperature; absolute IC50, mean of two independent experiments; read-out: IC50 activity range. The format is biochemical. On the technique in general: TR-FRET usually uses a lanthanide donor and a delayed reading to cut background.

SMILES strings stand for the structures.

As usually defined, the IC50 is the concentration at which inhibition is half-maximal.

T1 sequence (Q8NEB9 whole entry): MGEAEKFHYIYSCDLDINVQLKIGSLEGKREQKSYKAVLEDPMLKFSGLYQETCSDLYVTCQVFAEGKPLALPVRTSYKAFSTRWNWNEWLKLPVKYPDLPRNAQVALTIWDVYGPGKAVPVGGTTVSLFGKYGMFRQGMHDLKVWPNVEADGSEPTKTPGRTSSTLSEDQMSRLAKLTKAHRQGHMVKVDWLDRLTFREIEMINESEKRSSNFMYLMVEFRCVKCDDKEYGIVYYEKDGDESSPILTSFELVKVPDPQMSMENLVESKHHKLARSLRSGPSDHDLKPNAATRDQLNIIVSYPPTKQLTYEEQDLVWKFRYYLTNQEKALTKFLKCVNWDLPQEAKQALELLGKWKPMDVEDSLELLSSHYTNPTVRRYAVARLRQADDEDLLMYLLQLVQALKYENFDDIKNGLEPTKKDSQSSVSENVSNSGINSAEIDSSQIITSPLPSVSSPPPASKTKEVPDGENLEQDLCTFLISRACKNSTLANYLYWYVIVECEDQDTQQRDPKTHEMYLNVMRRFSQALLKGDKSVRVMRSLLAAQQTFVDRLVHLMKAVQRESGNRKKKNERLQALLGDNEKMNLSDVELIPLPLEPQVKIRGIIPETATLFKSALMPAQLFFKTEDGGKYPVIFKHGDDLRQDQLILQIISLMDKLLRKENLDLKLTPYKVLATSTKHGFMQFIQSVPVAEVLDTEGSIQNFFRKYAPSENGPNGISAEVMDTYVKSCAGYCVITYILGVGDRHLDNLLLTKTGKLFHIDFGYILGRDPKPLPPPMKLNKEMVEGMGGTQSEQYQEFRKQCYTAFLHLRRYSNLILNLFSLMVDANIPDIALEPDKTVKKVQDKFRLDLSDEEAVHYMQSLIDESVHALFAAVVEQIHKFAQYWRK

Consider `C[C@@H]1COCCN1c1cc(=O)n2c(n1)N(CC(=O)c1ccnc(F)c1)[C@H](C(F)(F)F)CC2` [Example 25, (S)-9-[2-(2-Fluoro-pyridin-4-yl)-2-oxo-ethyl]-2-((R)-3-methyl-morpholin-4-yl)-8-trifluoromethyl-6,7,8,9-tetrahydro-pyrimido[1,2-a]-pyrimidin-4-one], for which the IC50 was less than 10 nM.
Then `Cc1noc(CN2c3nc(N4CCOC[C@H]4C)c(F)c(=O)n3CC[C@H]2C(F)(F)F)n1` [Example 19, (S)-3-Fluoro-2-((R)-3-methylmorpholin-4-yl)-9-(3-methyl-[1,2,4]oxadiazol-5-yl-methyl)-8-trifluoromethyl-6,7,8,9-tetrahydro-pyrimido[1,2-a]-pyrimidin-4-one], with less than 10 nM.
With `CC(C)C(=O)CN1c2nc(N3CCOC[C@H]3C)c(F)c(=O)n2C[C@@]1(C)C(F)(F)F` [Example 185, (S)-6-Fluoro-2-methyl-7-((R)-3-methyl-morpholin-4-yl)-1-(3-methyl-2-oxobutyl)-2-trifluoromethyl-2,3-dihydro-1H-imidazo[1,2-a]-pyrimidin-5-one] the figure was less than 10 nM; with `CC(C)C(=O)CN1c2nc(N3CCOC[C@@H]3C)c(F)c(=O)n2CC[C@H]1C(F)(F)F` [Example 278, (S)-3-Fluoro-2-((S)-3-methylmorpholin-4-yl)-9-(3-methyl-2-oxo-butyl)-8-trifluoromethyl-6,7,8,9-tetrahydro-pyrimido[1,2-a]-pyrimidin-4-one], greater than 100 nM.
Consider `C[C@@H]1COCCN1c1nc2n(c(=O)c1F)CC[C@@H](C(F)(F)F)N2Cc1nc(C(F)(F)F)no1` [Example 251, (S)-3-Fluoro-2-((R)-3-methylmorpholin-4-yl)-8-trifluoromethyl-9-(3-trifluoromethyl-[1,2,4]oxadiazol-5-yl-methyl)-6,7,8,9-tetrahydro-pyrimido[1,2-a]-pyrimidin-4-one], for which the IC50 was less than 10 nM.
Then `C[C@@H]1COCCN1c1cc(=O)n2c(n1)N(CC(=O)C1CCCC1)[C@H](C(F)(F)F)CC2` [Example 244, (S)-9-(2-Cyclopentyl-2-oxoethyl)-2-((R)-3-methylmorpholin-4-yl)-8-trifluoromethyl-6,7,8,9-tetrahydro-pyrimido[1,2-a]-pyrimidin-4-one], with less than 10 nM.
With `C[C@@H]1COC[C@@H](C)N1c1cc(=O)n2c(n1)N(Cc1ccno1)[C@H](C(F)(F)F)CC2` [Example 9, (S)-2-((3R,5R)-3,5-Dimethylmorpholin-4-yl)-9-isoxazol-5-yl-methyl-8-trifluoromethyl-6,7,8,9-tetrahydro-pyrimido[1,2-a]-pyrimidin-4-one] the figure was less than 10 nM.
With `C[C@@H]1COCCN1c1nc2n(c(=O)c1F)CC[C@@H](C(F)(F)F)N2CC(=O)N1CCCCC1` [Example 237, (S)-3-Fluoro-2-((R)-3-methylmorpholin-4-yl)-9-(2-oxo-2-piperidin-1-ylethyl)-8-trifluoromethyl-6,7,8,9-tetrahydro-pyrimido[1,2-a]-pyrimidin-4-one] the figure was less than 10 nM; with `C[C@@H]1COCCN1c1cc(=O)n2c(n1)N(c1ccc(C(F)F)nc1)C(C(F)(F)F)CC2` (stereo partly drawn) [Example 134, 9-(6-Difluoromethyl-pyridin-3-yl)-2-((R)-3-methylmorpholin-4-yl)-8-trifluoromethyl-6,7,8,9-tetrahydro-pyrimido[1,2-a]-pyrimidin-4-one], less than 10 nM; with `C[C@@H]1COCCN1c1cc(=O)n2c(n1)N(CC(=O)N1CCCCC1)[C@H](C(F)(F)F)CC2` [Example 233, (S)-2-((R)-3-Methyl-morpholin-4-yl)-9-(2-oxo-2-piperidin-1-yl-ethyl)-8-trifluoromethyl-6,7,8,9-tetrahydro-pyrimido[1,2-a]-pyrimidin-4-one], less than 10 nM.
As for `C[C@@H]1COCCN1c1nc2n(c(=O)c1F)CC[C@@H](C(F)(F)F)N2Cc1ccon1` [Example 296, (S)-3-Fluoro-9-isoxazol-3-ylmethyl-2-((R)-3-methyl-morpholin-4-yl)-8-trifluoromethyl-6,7,8,9-tetrahydro-pyrimido[1,2-a]-pyrimidin-4-one], the concentration for half-maximal inhibition (IC50) was less than 10 nM.
Then `CON(C)C(=O)CN1c2nc(N3CCOC[C@H]3C)c(F)c(=O)n2CC[C@H]1C(F)(F)F` [Example 23, 2-[(S)-7-Fluoro-8-((R)-3-methylmorpholin-4-yl)-6-oxo-2-trifluoromethyl-3,4-dihydro-2H,6H-pyrimido[1,2-a]-pyrimidin-1-yl]-N-methoxy-N-methyl-acetamide], with less than 10 nM; and `C[C@@H]1COCCN1c1cc(=O)n2c(n1)N(Cc1nc(C(F)(F)F)no1)[C@H](C(F)(F)F)CC2` [Example 292, (S)-2-((R)-3-Methyl-morpholin-4-yl)-8-trifluoromethyl-9-(3-trifluoromethyl-[1,2,4]oxadiazol-5-yl-methyl)-6,7,8,9-tetrahydro-pyrimido[1,2-a]-pyrimidin-4-one], with less than 10 nM.
Then `C[C@@H]1COCCN1c1cc(=O)n2c(n1)N(c1ccnc(Cl)c1)[C@H](C(F)(F)F)CC2` [Example 79, (S)-9-(2-Chloro-pyridin-4-yl)-2-((R)-3-methylmorpholin-4-yl)-8-trifluoromethyl-6,7,8,9-tetrahydro-pyrimido[1,2-a]-pyrimidin-4-one], with less than 10 nM; and `O=c1cc(N2CC3CCC(C2)O3)nc2n1CC[C@@H](C(F)(F)F)N2Cc1ccc(Cl)nc1` [Example 168, (S)-9-(6-Chloro-pyridin-3-ylmethyl)-2-(8-oxa-3-aza-bicyclo[3.2.1]oct-3-yl)-8-trifluoromethyl-6,7,8,9-tetrahydro-pyrimido[1,2-a]-pyrimidin-4-one], with 10 to 100 nM; and `C[C@@H]1COCCN1c1cc(=O)n2c(n1)N(CCc1ccc(F)cc1)[C@H](C(F)(F)F)CC2` [Example 219, (S)-9-[2-(4-Fluoro-phenyl)ethyl]-2-((R)-3-methylmorpholin-4-yl)-8-trifluoromethyl-6,7,8,9-tetrahydro-pyrimido[1,2-a]-pyrimidin-4-one], with less than 10 nM.
With `C[C@@H]1COCCN1c1cc(=O)n2c(n1)N(CC(=O)C1CC1)[C@](C)(C(F)(F)F)C2` [Example 31, (S)-1-(2-Cyclopropyl-2-oxoethyl)-2-methyl-7-((R)-3-methyl-morpholin-4-yl)-2-trifluoromethyl-2,3-dihydro-1H-imidazo[1,2-a]-pyrimidin-5-one] the figure was less than 10 nM; with `CC(C)Oc1ccc(N2CC[C@H](C(F)(F)F)n3c2nc(N2CCOC[C@H]2C)cc3=O)cn1` [Example 116, (R)-9-(6-Isopropoxy-pyridin-3-yl)-2-((R)-3-methylmorpholin-4-yl)-6-trifluoromethyl-6,7,8,9-tetrahydro-pyrimido[1,2-a]-pyrimidin-4-one], less than 10 nM.
Turning to `C[C@@H]1COC[C@@H](C)N1c1cc(=O)n2c(n1)N(Cc1ccc(Cl)nc1)[C@H](C(F)(F)F)CC2` [Example 156, (S)-9-(6-Chloro-pyridin-3-ylmethyl)-2-((3R,5R)-3,5-dimethyl-morpholin-4-yl)-8-trifluoromethyl-6,7,8,9-tetrahydro-pyrimido[1,2-a]-pyrimidin-4-one], the half-inhibitory concentration (IC50) lay in the range of 10 to 100 nM.
With `CC(C)C(=O)CN1c2nc(N3CC4CCC(C3)O4)c(F)c(=O)n2CC[C@H]1C(F)(F)F` [Example 274, (S)-3-Fluoro-9-(3-methyl-2-oxobutyl)-2-(8-oxa-3-aza-bicyclo[3.2.1]oct-3-yl)-8-trifluoromethyl-6,7,8,9-tetrahydro-pyrimido[1,2-a]-pyrimidin-4-one] the figure was 10 to 100 nM; with `COc1cc(N2CC[C@H](C(F)(F)F)n3c2nc(N2CCOC[C@H]2C)cc3=O)ccn1` [Example 109, (R)-9-(2-Methoxy-pyridin-4-yl)-2-((R)-3-methylmorpholin-4-yl)-6-trifluoromethyl-6,7,8,9-tetrahydro-pyrimido[1,2-a]-pyrimidin-4-one], less than 10 nM.
In the case of `C[C@@H]1COCCN1c1cc(=O)n2c(n1)N(Cc1ccncc1Cl)[C@H](C(F)(F)F)CC2` [Example 66, (S)-9-(3-Chloro-pyridin-4-ylmethyl)-2-((R)-3-methyl-mopholin-4-yl)-8-trifluoromethyl-6,7,8,9-tetrahydro-pyrimido[1,2-a]-pyrimidin-4-one], the IC50 was less than 10 nM.
Consider `C[C@@H]1COCCN1c1nc2n(c(=O)c1F)CC[C@@H](C(F)(F)F)N2Cc1ccc(F)cn1` [Example 56, (S)-3-Fluoro-9-(5-fluoropyridin-2-yl-methyl)-2-((R)-3-methylmorpholin-4-yl)-8-trifluoromethyl-6,7,8,9-tetrahydro-pyrimido[1,2-a]-pyrimidin-4-one], for which the IC50 is less than 10 nM.
With `C[C@@H]1COCCN1c1cc(=O)n2c(n1)N(Cc1ccon1)[C@](C)(C(F)(F)F)CC2` [Example 215, (S)-9-Isoxazol-3-yl-methyl-8-methyl-2-((R)-3-methyl-morpholin-4-yl)-8-trifluoromethyl-6,7,8,9-tetrahydro-pyrimido[1,2-a]-pyrimidin-4-one] the figure was less than 10 nM; with `C[C@@H]1COCCN1c1cc(=O)n2c(n1)N(CC(=O)c1ccccn1)[C@](C)(C(F)(F)F)C2` [Example 179, (S)-2-Methyl-7-((R)-3-methylmorpholin-4-yl)-1-(2-oxo-2-pyridin-2-ylethyl)-2-trifluoromethyl-2,3-dihydro-1H-imidazo[1,2-a]-pyrimidin-5-one], less than 10 nM; with `C[C@@H]1COCCN1c1nc2n(c(=O)c1F)CC[C@@H](C(F)(F)F)N2CCOCC(F)(F)F` [Example 48, (S)-3-Fluoro-2-((R)-3-methylmorpholin-4-yl)-9-[2-(2,2,2-trifluoro-ethoxy)ethyl]-8-trifluoromethyl-6,7,8,9-tetrahydro-pyrimido[1,2-a]-pyrimidin-4-one], less than 10 nM.
With `Cc1nc(CN2c3nc(N4CC5CCC(C4)O5)cc(=O)n3CC[C@H]2C(F)(F)F)no1` [Example 270, (S)-9-(5-Methyl-[1,2,4]oxadiazol-3-yl-methyl)-2-(8-oxa-3-azabicyclo[3.2.1]oct-3-yl)-8-trifluoromethyl-6,7,8,9-tetrahydro-pyrimido[1,2-a]-pyrimidin-4-one] the figure was 10 to 100 nM.
